Measurements reported in ChEMBL document CHEMBL1149526, “Synthesis and SAR of selective benzothiophene, benzofuran, and indole-based peroxisome proliferator-activated receptor delta agonists” (Bioorg Med Chem Lett, 2007).

What was measured:
[1] = target: T1, Peroxisome proliferator-activated receptor alpha (Homo sapiens, UniProt Q07869)
T1 sequence (Q07869 whole entry): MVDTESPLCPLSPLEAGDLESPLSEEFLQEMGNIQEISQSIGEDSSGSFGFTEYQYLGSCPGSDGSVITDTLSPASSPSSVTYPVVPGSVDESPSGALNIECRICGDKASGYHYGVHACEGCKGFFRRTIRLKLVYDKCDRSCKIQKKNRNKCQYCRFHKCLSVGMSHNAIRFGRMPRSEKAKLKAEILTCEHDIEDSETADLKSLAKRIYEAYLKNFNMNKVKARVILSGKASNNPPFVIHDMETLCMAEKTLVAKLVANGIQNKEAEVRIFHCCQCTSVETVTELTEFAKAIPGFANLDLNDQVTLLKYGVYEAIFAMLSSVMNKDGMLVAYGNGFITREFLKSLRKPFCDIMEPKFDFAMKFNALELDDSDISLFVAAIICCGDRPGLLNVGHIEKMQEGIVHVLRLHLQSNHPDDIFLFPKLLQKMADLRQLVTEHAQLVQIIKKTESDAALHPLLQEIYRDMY

[2] = target: T2, Peroxisome proliferator-activated receptor delta (Homo sapiens, UniProt Q03181); assay type: functional, cell-based, HepG2
T2 sequence (Q03181 whole entry): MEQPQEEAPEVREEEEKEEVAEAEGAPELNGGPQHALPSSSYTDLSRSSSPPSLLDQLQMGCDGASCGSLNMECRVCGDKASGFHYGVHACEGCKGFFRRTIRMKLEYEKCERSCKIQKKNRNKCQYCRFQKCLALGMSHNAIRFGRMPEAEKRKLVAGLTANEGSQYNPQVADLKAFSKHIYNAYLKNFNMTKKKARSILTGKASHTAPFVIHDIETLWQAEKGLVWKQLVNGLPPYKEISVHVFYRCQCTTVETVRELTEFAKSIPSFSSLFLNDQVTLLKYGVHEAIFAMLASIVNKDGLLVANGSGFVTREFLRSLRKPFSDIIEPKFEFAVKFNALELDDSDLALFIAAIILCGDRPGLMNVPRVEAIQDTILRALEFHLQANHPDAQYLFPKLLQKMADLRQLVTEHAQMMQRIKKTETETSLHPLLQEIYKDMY

[3] = target: T2, Peroxisome proliferator-activated receptor delta

Row | Compound | IC50 [1] [nM] | EC50 [2] [nM] | IC50 [3] [nM]
1 | O=C(O)Cn1ccc2cc(OCc3ccccc3COc3ccc(C(F)(F)F)cc3)ccc21 | > 10000 | 3080 | 734
2 | O=C(O)Cc1csc2cc(OCc3cc(-c4ccc(Cl)cc4)on3)ccc12 | 3820 | 226 | 7.7
3 | O=C(O)Cc1coc2cc(OCc3cc(-c4ccc(C(F)(F)F)cc4)on3)ccc12 | 1420 | 1610 | 25
4 | Cc1cc2c(CC(=O)O)csc2cc1OCc1cc(-c2ccc(Cl)cc2)on1 | 5810 | 656 | 37
5 | O=C(O)Cc1csc2cc(OCc3cc(-c4ccc(Cl)cc4)on3)cc(Cl)c12 | 3840 | 6360 | 375
6 | Cc1cc(OCc2cc(-c3ccc(C(F)(F)F)cc3)on2)cc2scc(CC(=O)O)c12 | 1470 | 561 | 37
7 | O=C(O)Cc1csc2cc(OCc3ccccc3COc3ccc(C(F)(F)F)cc3)ccc12 | 7860 | 2230 | 244
8 | Cc1cc2c(CC(=O)O)csc2cc1OCc1ccccc1COc1ccc(C(F)(F)F)cc1 | 4680 | – | –
9 | O=C(O)Cc1coc2cc(OCc3cccc(COc4ccc(C(F)(F)F)cc4)c3)ccc12 | 2500 | – | –
10 | O=C(O)Cc1coc2cc(OCc3ccc(COc4ccc(C(F)(F)F)cc4)cc3)ccc12 | 2380 | 3440 | 81
11 | O=C(O)Cc1coc2cc(OCc3cc(-c4ccc(Cl)cc4)on3)ccc12 | 2380 | 323 | 81
12 | O=C(O)Cc1coc2cc(OCc3ccccc3COc3ccc(C(F)(F)F)cc3)ccc12 | > 10000 | 3120 | 662

The next molecules have a lower IC50 [1] than those just listed; values first:

Row | IC50 [1] [nM] | EC50 [2] [nM] | IC50 [3] [nM] | Compound
13 | 179 | 254 | 13 | O=C(O)Cn1ccc2cc(OCc3cccc(COc4ccc(C(F)(F)F)cc4)c3)ccc21
14 | 172 | 4 | 2.8 | Cc1nc(C(F)(F)F)sc1CSc1ccc2c(ccn2CC(=O)O)c1
15 | 482 | – | – | Cc1nc(-c2ccc(C(F)(F)F)cc2)sc1COc1ccc2c(CC(=O)O)csc2c1
16 | 1040 | 227 | 58 | Cc1nc(-c2ccc(C(F)(F)F)cc2)sc1COc1cc(Cl)c2c(CC(=O)O)csc2c1
17 | 963 | – | – | O=C(O)Cc1csc2cc(OCc3cccc(COc4ccc(C(F)(F)F)cc4)c3)ccc12
18 | 229 | – | – | O=C(O)Cc1csc2cc(OCc3ccc(COc4ccc(C(F)(F)F)cc4)cc3)ccc12
19 | 550 | 223 | 6.8 | Cc1nc(C(F)(F)F)sc1COc1ccc2c(ccn2CC(=O)O)c1
20 | 679 | 243 | 14 | Cc1nc(-c2ccc(C(F)(F)F)cc2)sc1COc1ccc2c(CC(=O)O)coc2c1
21 | 683 | – | 237 | Cc1cc2c(CC(=O)O)csc2cc1OCc1sc(-c2ccc(C(F)(F)F)cc2)nc1C
22 | 311 | 638 | 23 | Cc1cc(OCc2cc(-c3ccc(Cl)cc3)on2)cc2scc(CC(=O)O)c12
23 | 261 | 305 | 11 | O=C(O)Cc1csc2cc(OCc3cc(-c4ccc(C(F)(F)F)cc4)on3)ccc12
24 | 562 | 2810 | 91 | O=C(O)Cn1ccc2cc(OCc3ccc(Oc4ccc(C(F)(F)F)cc4)cc3)ccc21
25 | 1350 | 2360 | 97 | O=C(O)Cc1csc2cc(OCc3cc(-c4ccc(C(F)(F)F)cc4)on3)cc(Cl)c12
26 | 835 | 1390 | 31 | O=C(O)Cn1ccc2cc(OCc3cc(-c4ccc(C(F)(F)F)cc4)on3)ccc21
